According to article PMC3543423, “Structure Prediction and Validation of the ERK8 Kinase Domain” (PLoS ONE, 2013):
pIC50: −log10 of the molar value.

Target: T1, ERK8 (Homo sapiens, UniProt Q8TD08)
T1 construct: gene MAPK15; full-length GST-ERK8 (baculovirus-expressed, GST-ERK8Bac)
T1 sequence (Q8TD08 1-544): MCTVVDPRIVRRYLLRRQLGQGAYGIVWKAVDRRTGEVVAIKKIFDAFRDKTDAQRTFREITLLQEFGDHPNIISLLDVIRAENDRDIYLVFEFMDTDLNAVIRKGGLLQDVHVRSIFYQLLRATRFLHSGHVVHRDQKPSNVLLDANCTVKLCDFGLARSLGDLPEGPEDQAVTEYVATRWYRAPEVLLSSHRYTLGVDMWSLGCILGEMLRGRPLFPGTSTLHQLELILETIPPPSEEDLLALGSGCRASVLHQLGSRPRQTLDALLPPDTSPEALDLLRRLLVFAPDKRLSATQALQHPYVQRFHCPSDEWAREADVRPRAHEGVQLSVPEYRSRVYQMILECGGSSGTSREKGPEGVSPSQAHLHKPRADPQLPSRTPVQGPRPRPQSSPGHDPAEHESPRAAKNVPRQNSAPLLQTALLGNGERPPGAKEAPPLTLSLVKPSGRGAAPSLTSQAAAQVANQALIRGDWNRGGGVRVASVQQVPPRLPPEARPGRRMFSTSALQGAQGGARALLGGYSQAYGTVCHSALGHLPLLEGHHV
Assay: radiometric [γ-32P]ATP kinase assay with MBP substrate, dose/response; ATP competition; reduced inhibition of F92I mutant
Assay type: biochemical

SMILES: CCOC(=O)c1c(C(=O)CSc2nc(-c3ccccc3)cc(-c3ccc(OC)cc3)c2C#N)sc2c1CCCC2 [ITT53]
- pIC50: 4.57

SMILES: COc1ccccc1NC(=O)c1cccc(Nc2nc(-c3ccccc3)c3cc(Br)ccc3n2)c1 [ITT57]
- pIC50: 4.77
